Measured values taken from patent US20080228408A1, “Method for Determining the State of an Ensemble of Cells and System for the Implementation of the Method” (priority 2005, published 2008).

Tested on: neuronal cells
Test: Toxicogenomic DNA chip test: gene expression level (RES) in cells exposed to the compound compared to unexposed cells
Format: cell-based
Excerpt: One wishes to carry out the evaluation of the toxicity of a collection of (15) pesticides using a toxicogenomic analysis of the impact of these pesticides on neuronal cells, according to 4 modes of exposure of the cells to the compounds:
DNA chips built specifically to test the expression level of the 51 genes in cells under study, each chip being configured only for one gene in our case, each chip allowing to carry out for each gene a redundant number of measurements (16) in order to stabilize the levels of expression by analysing the results on average. The spots on the chips are numbered sp1 to sp16.
An automated device D5 allowing, on signal of execution of the C2 test, to take a E1 sample of the cell culture C (non exposed) and a E2 sample of the cell culture C exposed to the compound by the device described previously under the conditions specified with the configuration, then to use the D1 device to select a DNA chip corresponding to the gene specified at the time of the configuration, and to put the samples E1 and E2 thus obtained in the presence of the aforementioned DNA chip according to the methods described in the D1 device,
The result of a test, RES, transmitted by the Resource Unit to the PC, is a raw numerical value which indicates the expression level of the gene indicated in the configuration, for the cell exposed to the compound under the conditions of concentration and exposure duration specified in the configuration, compared to the expression level of the same gene in an unexposed cell of identical nature.
The following results are based on 3 evaluations, each using a different strategy, the target cells being neuronal cells, the mode of exposure being Expo11.
The results presented in table 2 show the values obtained in (052) for the evaluation of Paraquat according to the 4 modes Expo11, Expo12, Expo21, Expo22 carried out. The missing data are not relevant (ranging between 0.5 and 2 strictly).

[1] = Neuron, C2 (IC50/10), 24 h (Expo21)
[2] = Neuron, C2 (IC50/10), 48 h (Expo22)
[3] = neuronal cells, Expo11 (IC50, 24 h), strategy of selection by class

Q: With `C[n+]1ccc(-c2cc[n+](C)cc2)cc1` [Paraquat] as the molecule, how does the “ALB gene expression level RES (exposed/unexposed cells)” value [1] read?
A: Its value is 0.34.

Q: And the “APAF1 gene expression level RES (exposed/unexposed cells)” value [1]?
A: The value was 0.20.

Q: What about the “AR gene expression level RES (exposed/unexposed cells)” value [1] of the same molecule?
A: The value was 0.08.

Q: And the “ATF6 gene expression level RES (exposed/unexposed cells)” value [1]?
A: Its value is 0.17.

Q: And the “ATM gene expression level RES (exposed/unexposed cells)” value [1]?
A: The value was 0.11.

Q: What about the “BAX gene expression level RES (exposed/unexposed cells)” value [1] of the same molecule?
A: The value was 0.09.

Q: What about the “BCL2 gene expression level RES (exposed/unexposed cells)” value [1] of the same molecule?
A: Its value is 0.14.

Q: What about the “BZRP gene expression level RES (exposed/unexposed cells)” value [1] of the same molecule?
A: Its value is 0.14.

Q: What about the “C12ORF8 gene expression level RES (exposed/unexposed cells)” value [1] of the same molecule?
A: Its value is 0.22.

Q: And the “CALR gene expression level RES (exposed/unexposed cells)” value [1]?
A: The value was 0.38.

Q: And the “CDC25C gene expression level RES (exposed/unexposed cells)” value [1]?
A: The value was 0.37.

Q: What about the “CDK4 gene expression level RES (exposed/unexposed cells)” value [1] of the same molecule?
A: Its value is 0.29.

Q: And the “CDKN1A gene expression level RES (exposed/unexposed cells)” value [1]?
A: Its value is 0.13.

Q: And the “CREB1 gene expression level RES (exposed/unexposed cells)” value [1]?
A: The value was 0.29.

Q: What about the “CTSB gene expression level RES (exposed/unexposed cells)” value [1] of the same molecule?
A: Its value is 0.20.

Q: What about the “CTSD gene expression level RES (exposed/unexposed cells)” value [1] of the same molecule?
A: The value was 0.05.

Q: And the “EGF gene expression level RES (exposed/unexposed cells)” value [1]?
A: Its value is 0.21.

Q: What about the “EPHX1 gene expression level RES (exposed/unexposed cells)” value [1] of the same molecule?
A: Its value is 0.19.

Q: What about the “FOS gene expression level RES (exposed/unexposed cells)” value [1] of the same molecule?
A: Its value is 0.12.

Q: And the “GADD45A gene expression level RES (exposed/unexposed cells)” value [1]?
A: The value was 0.20.

Q: And the “GPX1 gene expression level RES (exposed/unexposed cells)” value [1]?
A: Its value is 0.09.

Q: What about the “GSS gene expression level RES (exposed/unexposed cells)” value [1] of the same molecule?
A: Its value is 0.28.

Q: And the “GSTM3 gene expression level RES (exposed/unexposed cells)” value [1]?
A: Its value is 0.36.

Q: What about the “HOXD1 gene expression level RES (exposed/unexposed cells)” value [1] of the same molecule?
A: The value was 0.11.

Q: What about the “HSPA5 gene expression level RES (exposed/unexposed cells)” value [1] of the same molecule?
A: The value was 0.33.

Q: And the “HSPA9B gene expression level RES (exposed/unexposed cells)” value [1]?
A: The value was 0.16.

Q: And the “JUN gene expression level RES (exposed/unexposed cells)” value [1]?
A: Its value is 0.33.

Q: What about the “MDM2 gene expression level RES (exposed/unexposed cells)” value [1] of the same molecule?
A: The value was 0.05.

Q: What about the “NFKB1 gene expression level RES (exposed/unexposed cells)” value [1] of the same molecule?
A: The value was 0.26.

Q: And the “NOS2A gene expression level RES (exposed/unexposed cells)” value [1]?
A: Its value is 0.30.

Q: And the “PARA gene expression level RES (exposed/unexposed cells)” value [1]?
A: Its value is 0.04.

Q: What about the “PGR gene expression level RES (exposed/unexposed cells)” value [1] of the same molecule?
A: Its value is 0.12.

Q: And the “RAD50 gene expression level RES (exposed/unexposed cells)” value [1]?
A: The value was 0.35.

Q: What about the “RAD51 gene expression level RES (exposed/unexposed cells)” value [1] of the same molecule?
A: Its value is 0.22.

Q: And the “SOD1 gene expression level RES (exposed/unexposed cells)” value [1]?
A: Its value is 0.24.

Q: What about the “TF1 gene expression level RES (exposed/unexposed cells)” value [1] of the same molecule?
A: The value was 0.53.

Q: And the “THBS1 gene expression level RES (exposed/unexposed cells)” value [1]?
A: Its value is 0.08.

Q: What about the “TP53 gene expression level RES (exposed/unexposed cells)” value [1] of the same molecule?
A: The value was 0.31.

Q: What about the “TUBA1 gene expression level RES (exposed/unexposed cells)” value [1] of the same molecule?
A: Its value is 0.03.

Q: And the “XBP1 gene expression level RES (exposed/unexposed cells)” value [1]?
A: Its value is 0.24.

Q: What about the “A2M gene expression level RES (exposed/unexposed cells)” value [2] of the same molecule?
A: Its value is 0.04.

Q: And the “AITCH gene expression level RES (exposed/unexposed cells)” value [2]?
A: Its value is 0.03.

Q: And the “ALB gene expression level RES (exposed/unexposed cells)” value [2]?
A: Its value is 0.02.

Q: What about the “APAF1 gene expression level RES (exposed/unexposed cells)” value [2] of the same molecule?
A: The value was 0.05.

Q: And the “AR gene expression level RES (exposed/unexposed cells)” value [2]?
A: The value was 0.05.

Q: What about the “ATF6 gene expression level RES (exposed/unexposed cells)” value [2] of the same molecule?
A: The value was 0.06.

Q: What about the “ATM gene expression level RES (exposed/unexposed cells)” value [2] of the same molecule?
A: The value was 0.04.

Q: And the “BAX gene expression level RES (exposed/unexposed cells)” value [2]?
A: The value was 0.05.

Q: And the “BCL2 gene expression level RES (exposed/unexposed cells)” value [2]?
A: The value was 0.03.

Q: And the “BZRP gene expression level RES (exposed/unexposed cells)” value [2]?
A: The value was 0.04.

Q: What about the “C12ORF8 gene expression level RES (exposed/unexposed cells)” value [2] of the same molecule?
A: The value was 0.04.

Q: And the “CALR gene expression level RES (exposed/unexposed cells)” value [2]?
A: Its value is 0.11.

Q: What about the “CDC25C gene expression level RES (exposed/unexposed cells)” value [2] of the same molecule?
A: Its value is 0.05.

Q: What about the “CDK4 gene expression level RES (exposed/unexposed cells)” value [2] of the same molecule?
A: Its value is 0.06.

Q: What about the “CDKN1A gene expression level RES (exposed/unexposed cells)” value [2] of the same molecule?
A: The value was 0.02.

Q: What about the “CREB1 gene expression level RES (exposed/unexposed cells)” value [2] of the same molecule?
A: The value was 0.05.

Q: And the “CTSB gene expression level RES (exposed/unexposed cells)” value [2]?
A: The value was 0.06.

Q: And the “CTSD gene expression level RES (exposed/unexposed cells)” value [2]?
A: Its value is 0.03.

Q: And the “EGF gene expression level RES (exposed/unexposed cells)” value [2]?
A: Its value is 0.05.

Q: And the “EPHX1 gene expression level RES (exposed/unexposed cells)” value [2]?
A: Its value is 0.08.

Q: And the “FOS gene expression level RES (exposed/unexposed cells)” value [2]?
A: The value was 0.05.

Q: What about the “GADD45A gene expression level RES (exposed/unexposed cells)” value [2] of the same molecule?
A: The value was 0.04.

Q: What about the “GPX1 gene expression level RES (exposed/unexposed cells)” value [2] of the same molecule?
A: Its value is 0.02.

Q: And the “GSS gene expression level RES (exposed/unexposed cells)” value [2]?
A: Its value is 0.03.

Q: And the “GSTM3 gene expression level RES (exposed/unexposed cells)” value [2]?
A: Its value is 0.06.

Q: And the “HOXD1 gene expression level RES (exposed/unexposed cells)” value [2]?
A: Its value is 0.05.

Q: What about the “HSPA5 gene expression level RES (exposed/unexposed cells)” value [2] of the same molecule?
A: The value was 0.07.

Q: What about the “HSPA9B gene expression level RES (exposed/unexposed cells)” value [2] of the same molecule?
A: The value was 0.06.

Q: And the “JUN gene expression level RES (exposed/unexposed cells)” value [2]?
A: The value was 0.05.

Q: And the “MDM2 gene expression level RES (exposed/unexposed cells)” value [2]?
A: Its value is 0.06.

Q: And the “NFKB1 gene expression level RES (exposed/unexposed cells)” value [2]?
A: Its value is 0.05.

Q: And the “NOS2A gene expression level RES (exposed/unexposed cells)” value [2]?
A: Its value is 0.06.

Q: And the “PARA gene expression level RES (exposed/unexposed cells)” value [2]?
A: Its value is 0.05.

Q: And the “PGR gene expression level RES (exposed/unexposed cells)” value [2]?
A: Its value is 0.04.

Q: What about the “RAD50 gene expression level RES (exposed/unexposed cells)” value [2] of the same molecule?
A: Its value is 0.06.

Q: And the “RAD51 gene expression level RES (exposed/unexposed cells)” value [2]?
A: The value was 0.06.

Q: What about the “SOD1 gene expression level RES (exposed/unexposed cells)” value [2] of the same molecule?
A: Its value is 0.04.

Q: What about the “TF1 gene expression level RES (exposed/unexposed cells)” value [2] of the same molecule?
A: Its value is 0.05.

Q: What about the “THBS1 gene expression level RES (exposed/unexposed cells)” value [2] of the same molecule?
A: The value was 0.06.

Q: And the “TP53 gene expression level RES (exposed/unexposed cells)” value [2]?
A: Its value is 0.05.

Q: And the “TUBA1 gene expression level RES (exposed/unexposed cells)” value [2]?
A: Its value is 0.04.

Q: What about the “XBP1 gene expression level RES (exposed/unexposed cells)” value [2] of the same molecule?
A: Its value is 0.06.

Q: What about the “A2M marker test: relevant level of expression (RES <=0.5 or >=2)” value [3] of the same molecule?
A: The value was “relevant result”.

Q: What about the “CDKN1A marker test: relevant level of expression (RES <=0.5 or >=2)” value [3] of the same molecule?
A: The value was “relevant result was found”.

Q: What about the “CYP19A1 marker test: relevant level of expression (RES <=0.5 or >=2)” value [3] of the same molecule?
A: Its value is “did not provide any relevant result”.

Q: And the “SOD1 marker test: relevant level of expression (RES <=0.5 or >=2)” value [3]?
A: Its value is “without success”.
